According to publication PMC4639830, “Inhibition of DYRK1A and GSK3B induces human β-cell proliferation” (Nature Communications, 2015):

What was measured:
[1] = tested on: reversibly immortalized mouse beta (R7T1) cells; assay: R7T1 proliferation assay (CellTiter Glo); format: cell-based; conditions: growth-arrested R7T1 cells
Protocol: Reversibly immortalized mouse β-cells (R7T1)[49] express SV40 T antigen under a tetracycline inducible promoter. R7T1 cells were expanded in the presence of doxycycline. For experiments on proliferation, R7T1 cells were growth arrested by removal of doxycycline for 2 days and plated into 384-well plates at a density of 3,000 cells per well in growth medium. β-Cell proliferation was assessed using CellTiter Glo (Promega) after 4 days. Fold increase in cell number was calculated by normalizing compound-treated wells to the median of DMSO-treated wells.

human islets = assay: Human islets treated 7 days: DNA, ATP, IEQ, insulin content, GSIS; format: cell-based; conditions: for DNA and ATP content and islet equivalent units (IEQ) compared with vehicle / insulin secretory capacity (GSIS): 6.7 μM GNF7156 or 2 μM GNF4877
Protocol: Human islets were evaluated for glucose stimulated insulin secretion using standard methods. Secreted insulin was monitored using an ELISA (Meso-scale Devices) and normalized to total DNA (PicoGreen, Invitrogen).
Rat or human β-cell proliferation assays were performed using dissociated primary rat or human islets. Islets were treated with the indicated compounds in the presence of EdU for 4 days before fixing and staining. EdU incorporation was measured by click reaction with AlexaFluor-647-azide (Invitrogen). For intact islet assays, primary human islets were treated for 7 or 8 days (as indicated in the legend). Rat dissociated islets were cultured in RPMI medium containing 10% FBS and human dissociated islets were cultured in PIM-S media (Prodo laboratories) with 10% human […].

[2] = tested on: Wnt-driven luciferase reporter in TM3 cells; assay: Wnt-driven luciferase reporter gene (Super Top Flash); format: cell-based
Source text: Supplementary Figure 8. Selective Dyrk1a inhibition is sufficient to induce β-cell proliferation.
Top Flash) in TM3 cells (mean ± SD; n=3). (b) GNF6324-treated primary rat islets were
immunostained for nuclear localization of β-catenin in EdU and insulin co-positive cells. Co-
vehicle control cells. Scale bar = 20 µm. (c-e) Selective Dyrk1a inhibitors stimulate EdU
Beta-catenin/Insulin/DAPI
% E d U (+ ) b e ta c e lls
% E d U (+ ) in s u lin (+ ) c e lls […]
% E d U ( + ) in s u lin (+ ) c e lls C o n tro l
(1 picture or pasted object on this page, not shown here)

[3] = tested on: NFATc1-GFP localization in Ins1 cells; assay: NFATc1-GFP nuclear localization; format: cell-based; conditions: low glucose
Source text: Figure 6 AP compounds induce β-cell proliferation through activation of the calcineurin–NFAT pathway. (a) AP compounds stimulate NFATc1-GFP nuclear localization. […] Scale bar, 50 μm. […] Scale bar, 50 μm.

EphA3 = molecular target: T1, EphA3 (Homo sapiens, UniProt P29320); assay: Kinase profiling; format: biochemical; conditions: Conc 1000 nM; read-out: Percent inhibition, EphA3
T1 construct: purchased Ambit KINOMEscan
Source text: (§1) ; Fig. 5a; Supplementary Table 1). We focused on Dyrk1a because other kinases inhibited by aminopyrazine compounds were not highly expressed in β-cells and because Dyrk1a was known to inhibit the NFAT pathway that was previously implicated in β-cell proliferation. We used molecular modelling to dock the aminopyrazine compounds into the published structure of Dyrk1a (protein databank accession code 2vx3.pdb; Fig. 5b).

IGF1R = molecular target: T2, IGF1R (Homo sapiens, UniProt P08069); assay: Kinase profiling; format: biochemical; conditions: Conc 1000 nM; read-out: Percent inhibition, IGF1R
T2 construct: purchased Ambit KINOMEscan
Source text: as §1

IKKb = molecular target: T3, IKKb (Homo sapiens, UniProt O14920); assay: Kinase profiling; format: biochemical; conditions: Conc 1000 nM; read-out: Percent inhibition, IKKb
T3 construct: purchased Ambit KINOMEscan
Source text: as §1

IRAK4 = molecular target: T4, IRAK4 (Homo sapiens, UniProt Q9NWZ3); assay: Kinase profiling; format: biochemical; conditions: Conc 1000 nM; read-out: Percent inhibition, IRAK4
T4 construct: purchased Ambit KINOMEscan
Source text: as §1

PDGFRb = molecular target: T5, PDGFRb (Homo sapiens, UniProt P09619); assay: Kinase profiling; format: biochemical; conditions: read-out: Percent inhibition, PDGFRb; for inhibition at 1 µM: Conc 1000 nM
T5 construct: purchased Ambit (KINOMEscan)
Source text: as §1

PI3Ka = molecular target: T6, PI3Ka (Homo sapiens, UniProt P42336); assay: Kinase profiling; format: biochemical; conditions: Conc 1000 nM; read-out: Percent inhibition, PI3Ka
T6 construct: purchased Ambit (KINOMEscan)
Source text: as §1

SGK1 = molecular target: T7, SGK1 (Homo sapiens, UniProt O00141); assay: Kinase profiling; format: biochemical; conditions: Conc 1000 nM; read-out: Percent inhibition, SGK1
T7 construct: purchased Ambit (KINOMEscan)
Source text: as §1

SRC = molecular target: T8, SRC (Homo sapiens, UniProt P12931); assay: Kinase profiling; format: biochemical; conditions: Conc 1000 nM; read-out: Percent inhibition, SRC
T8 construct: purchased Ambit (KINOMEscan)
Source text: as §1

SYK = molecular target: T9, SYK (Homo sapiens, UniProt P43405); assay: Kinase profiling; format: biochemical; conditions: read-out: Percent inhibition, SYK; for inhibition at 1 µM: Conc 1000 nM
T9 construct: purchased Ambit (KINOMEscan)
Source text: as §1

TYRO3 = molecular target: T10, TYRO3 (Homo sapiens, UniProt Q06418); assay: Kinase profiling; format: biochemical; conditions: Conc 1000 nM; read-out: Percent inhibition, TYRO3
T10 construct: purchased Ambit (KINOMEscan)
Source text: as §1

ZAP70 = molecular target: T11, ZAP70 (Homo sapiens, UniProt P43403); assay: Kinase profiling; format: biochemical; conditions: read-out: Percent inhibition, ZAP70; for inhibition at 1 µM: Conc 1000 nM
T11 construct: purchased Ambit (KINOMEscan)
T11 sequence (P43403 1-619): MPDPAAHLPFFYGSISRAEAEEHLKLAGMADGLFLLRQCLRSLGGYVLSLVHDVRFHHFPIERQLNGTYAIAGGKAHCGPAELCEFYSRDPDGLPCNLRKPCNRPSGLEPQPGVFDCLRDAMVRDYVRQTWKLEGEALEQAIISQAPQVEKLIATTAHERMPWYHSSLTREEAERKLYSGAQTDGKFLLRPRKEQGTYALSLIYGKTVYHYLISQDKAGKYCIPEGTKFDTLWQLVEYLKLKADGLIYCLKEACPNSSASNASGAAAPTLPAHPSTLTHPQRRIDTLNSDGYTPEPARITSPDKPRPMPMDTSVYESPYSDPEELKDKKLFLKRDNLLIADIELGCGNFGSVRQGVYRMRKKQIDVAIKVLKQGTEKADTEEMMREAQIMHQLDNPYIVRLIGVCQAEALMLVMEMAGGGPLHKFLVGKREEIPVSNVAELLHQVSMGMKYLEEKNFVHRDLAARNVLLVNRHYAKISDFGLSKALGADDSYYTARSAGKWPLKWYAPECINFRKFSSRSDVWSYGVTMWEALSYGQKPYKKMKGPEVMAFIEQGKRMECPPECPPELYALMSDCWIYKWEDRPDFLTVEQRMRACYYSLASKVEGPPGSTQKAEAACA
Source text: as §1

FAK2 (PTK2) = assay: Kinase profiling; format: biochemical, human
Source text: as §1

T5 sequence (P09619 33-1106): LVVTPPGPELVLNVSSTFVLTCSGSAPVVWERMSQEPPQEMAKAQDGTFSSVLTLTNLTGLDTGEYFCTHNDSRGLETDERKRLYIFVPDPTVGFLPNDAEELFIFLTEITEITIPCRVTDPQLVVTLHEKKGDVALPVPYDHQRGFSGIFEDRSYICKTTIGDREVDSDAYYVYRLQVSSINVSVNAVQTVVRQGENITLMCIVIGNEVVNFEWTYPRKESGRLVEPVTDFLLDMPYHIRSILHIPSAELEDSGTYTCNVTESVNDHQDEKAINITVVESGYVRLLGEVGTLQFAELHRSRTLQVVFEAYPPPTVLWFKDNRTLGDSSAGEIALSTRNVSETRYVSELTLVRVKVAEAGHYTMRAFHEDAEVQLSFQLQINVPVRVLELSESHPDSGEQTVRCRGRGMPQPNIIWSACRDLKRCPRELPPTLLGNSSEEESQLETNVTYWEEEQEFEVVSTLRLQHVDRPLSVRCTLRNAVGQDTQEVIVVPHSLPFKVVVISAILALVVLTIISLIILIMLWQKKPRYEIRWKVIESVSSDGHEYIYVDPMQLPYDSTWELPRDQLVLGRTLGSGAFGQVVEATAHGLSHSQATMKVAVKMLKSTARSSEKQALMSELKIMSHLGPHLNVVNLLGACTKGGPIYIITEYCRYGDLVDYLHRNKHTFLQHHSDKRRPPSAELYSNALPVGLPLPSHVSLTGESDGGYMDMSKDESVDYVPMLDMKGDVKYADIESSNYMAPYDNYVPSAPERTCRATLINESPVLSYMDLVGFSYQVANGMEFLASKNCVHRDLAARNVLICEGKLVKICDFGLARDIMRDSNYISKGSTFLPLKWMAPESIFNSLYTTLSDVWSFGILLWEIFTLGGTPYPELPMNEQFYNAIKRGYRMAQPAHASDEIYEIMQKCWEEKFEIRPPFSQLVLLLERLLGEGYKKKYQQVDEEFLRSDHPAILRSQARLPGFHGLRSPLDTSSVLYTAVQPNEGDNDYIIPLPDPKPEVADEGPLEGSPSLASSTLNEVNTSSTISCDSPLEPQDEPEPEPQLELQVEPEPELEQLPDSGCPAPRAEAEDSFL
T6 sequence (P42336 whole entry): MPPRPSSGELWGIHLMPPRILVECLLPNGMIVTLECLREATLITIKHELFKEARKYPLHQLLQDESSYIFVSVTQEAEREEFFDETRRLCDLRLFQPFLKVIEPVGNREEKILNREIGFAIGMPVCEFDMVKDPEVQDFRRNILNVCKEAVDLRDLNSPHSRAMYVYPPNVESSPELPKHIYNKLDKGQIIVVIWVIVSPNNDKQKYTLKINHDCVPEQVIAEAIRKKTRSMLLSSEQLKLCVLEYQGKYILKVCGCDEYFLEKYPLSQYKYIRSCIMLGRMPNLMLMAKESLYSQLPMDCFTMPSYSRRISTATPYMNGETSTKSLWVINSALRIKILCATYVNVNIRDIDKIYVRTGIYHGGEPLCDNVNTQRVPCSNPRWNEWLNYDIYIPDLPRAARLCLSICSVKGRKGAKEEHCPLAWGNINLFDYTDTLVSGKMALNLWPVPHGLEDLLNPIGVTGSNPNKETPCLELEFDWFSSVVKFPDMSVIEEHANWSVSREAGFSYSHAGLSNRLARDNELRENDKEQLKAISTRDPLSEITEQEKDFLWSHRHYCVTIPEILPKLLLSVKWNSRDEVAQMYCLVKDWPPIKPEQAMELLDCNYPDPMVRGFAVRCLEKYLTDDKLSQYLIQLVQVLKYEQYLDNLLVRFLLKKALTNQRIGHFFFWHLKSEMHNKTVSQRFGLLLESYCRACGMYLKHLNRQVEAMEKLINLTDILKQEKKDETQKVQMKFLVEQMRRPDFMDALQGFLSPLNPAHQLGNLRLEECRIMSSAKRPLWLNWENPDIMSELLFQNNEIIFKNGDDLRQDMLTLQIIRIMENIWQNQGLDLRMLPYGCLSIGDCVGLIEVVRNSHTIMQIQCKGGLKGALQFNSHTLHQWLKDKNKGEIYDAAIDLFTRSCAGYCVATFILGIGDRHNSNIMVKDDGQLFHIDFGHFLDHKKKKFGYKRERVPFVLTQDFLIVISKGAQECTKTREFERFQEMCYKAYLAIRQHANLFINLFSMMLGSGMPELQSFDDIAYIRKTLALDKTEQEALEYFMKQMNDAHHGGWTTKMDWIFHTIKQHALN
T6 sequence (P27986 whole entry partner): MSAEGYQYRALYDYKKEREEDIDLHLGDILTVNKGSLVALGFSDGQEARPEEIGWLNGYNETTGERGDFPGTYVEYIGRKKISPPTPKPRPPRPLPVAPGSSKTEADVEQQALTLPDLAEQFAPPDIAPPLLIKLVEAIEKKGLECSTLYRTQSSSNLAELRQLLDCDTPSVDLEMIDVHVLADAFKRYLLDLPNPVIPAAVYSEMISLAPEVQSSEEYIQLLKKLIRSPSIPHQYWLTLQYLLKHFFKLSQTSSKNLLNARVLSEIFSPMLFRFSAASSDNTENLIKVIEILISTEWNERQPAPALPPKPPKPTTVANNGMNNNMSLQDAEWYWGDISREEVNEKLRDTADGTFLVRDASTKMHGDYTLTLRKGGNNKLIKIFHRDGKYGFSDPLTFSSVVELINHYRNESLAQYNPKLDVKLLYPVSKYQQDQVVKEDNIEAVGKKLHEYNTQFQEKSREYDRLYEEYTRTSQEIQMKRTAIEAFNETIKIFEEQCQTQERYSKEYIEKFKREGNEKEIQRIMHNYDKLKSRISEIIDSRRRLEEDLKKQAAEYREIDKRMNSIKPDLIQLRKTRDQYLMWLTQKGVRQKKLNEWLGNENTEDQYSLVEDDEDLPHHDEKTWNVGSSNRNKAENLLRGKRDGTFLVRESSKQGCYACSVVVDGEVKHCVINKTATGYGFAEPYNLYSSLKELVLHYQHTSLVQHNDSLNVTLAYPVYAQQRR
T2 sequence (P08069 31-1367): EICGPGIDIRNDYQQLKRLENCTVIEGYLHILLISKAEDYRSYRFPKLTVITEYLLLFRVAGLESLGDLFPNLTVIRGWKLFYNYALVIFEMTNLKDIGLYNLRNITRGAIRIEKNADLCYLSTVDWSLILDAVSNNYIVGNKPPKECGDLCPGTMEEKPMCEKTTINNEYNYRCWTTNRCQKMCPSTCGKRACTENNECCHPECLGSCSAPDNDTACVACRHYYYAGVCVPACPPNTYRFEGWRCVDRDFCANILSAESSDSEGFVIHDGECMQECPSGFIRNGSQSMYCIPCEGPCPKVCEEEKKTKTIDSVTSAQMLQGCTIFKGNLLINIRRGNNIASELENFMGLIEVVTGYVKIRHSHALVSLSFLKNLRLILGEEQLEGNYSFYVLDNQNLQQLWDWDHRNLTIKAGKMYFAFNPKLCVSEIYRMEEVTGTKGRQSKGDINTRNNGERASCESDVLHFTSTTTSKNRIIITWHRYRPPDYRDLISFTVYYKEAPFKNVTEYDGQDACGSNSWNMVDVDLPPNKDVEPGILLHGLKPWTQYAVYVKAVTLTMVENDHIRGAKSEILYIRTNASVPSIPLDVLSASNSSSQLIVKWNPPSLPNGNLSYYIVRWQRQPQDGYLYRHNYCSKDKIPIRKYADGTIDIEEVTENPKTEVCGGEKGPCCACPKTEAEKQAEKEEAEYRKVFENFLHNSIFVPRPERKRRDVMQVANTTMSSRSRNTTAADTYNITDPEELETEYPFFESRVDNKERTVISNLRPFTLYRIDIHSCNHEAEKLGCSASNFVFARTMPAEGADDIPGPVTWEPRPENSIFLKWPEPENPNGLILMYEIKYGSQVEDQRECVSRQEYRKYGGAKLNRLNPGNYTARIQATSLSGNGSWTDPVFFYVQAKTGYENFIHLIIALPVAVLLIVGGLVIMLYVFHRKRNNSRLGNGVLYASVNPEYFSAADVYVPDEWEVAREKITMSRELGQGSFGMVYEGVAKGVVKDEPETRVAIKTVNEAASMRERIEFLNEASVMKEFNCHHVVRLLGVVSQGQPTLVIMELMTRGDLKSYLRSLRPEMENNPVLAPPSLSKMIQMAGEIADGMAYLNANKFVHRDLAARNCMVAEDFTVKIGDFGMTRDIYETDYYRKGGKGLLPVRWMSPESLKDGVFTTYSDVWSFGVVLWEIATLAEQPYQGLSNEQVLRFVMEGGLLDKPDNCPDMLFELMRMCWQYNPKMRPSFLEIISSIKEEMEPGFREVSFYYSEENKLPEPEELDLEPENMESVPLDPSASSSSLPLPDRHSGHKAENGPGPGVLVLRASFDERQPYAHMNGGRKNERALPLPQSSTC
T7 sequence (O00141 whole entry): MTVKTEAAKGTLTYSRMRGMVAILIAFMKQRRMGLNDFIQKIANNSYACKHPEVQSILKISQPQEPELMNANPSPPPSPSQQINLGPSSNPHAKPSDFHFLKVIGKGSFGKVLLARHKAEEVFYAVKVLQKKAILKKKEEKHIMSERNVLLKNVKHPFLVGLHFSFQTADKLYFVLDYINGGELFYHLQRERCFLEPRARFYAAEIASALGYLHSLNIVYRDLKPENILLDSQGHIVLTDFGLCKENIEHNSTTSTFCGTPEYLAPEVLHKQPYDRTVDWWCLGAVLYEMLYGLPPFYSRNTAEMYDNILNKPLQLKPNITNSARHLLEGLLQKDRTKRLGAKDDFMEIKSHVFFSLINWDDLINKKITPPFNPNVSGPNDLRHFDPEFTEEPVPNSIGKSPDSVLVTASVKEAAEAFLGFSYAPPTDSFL
T4 sequence (Q9NWZ3 whole entry): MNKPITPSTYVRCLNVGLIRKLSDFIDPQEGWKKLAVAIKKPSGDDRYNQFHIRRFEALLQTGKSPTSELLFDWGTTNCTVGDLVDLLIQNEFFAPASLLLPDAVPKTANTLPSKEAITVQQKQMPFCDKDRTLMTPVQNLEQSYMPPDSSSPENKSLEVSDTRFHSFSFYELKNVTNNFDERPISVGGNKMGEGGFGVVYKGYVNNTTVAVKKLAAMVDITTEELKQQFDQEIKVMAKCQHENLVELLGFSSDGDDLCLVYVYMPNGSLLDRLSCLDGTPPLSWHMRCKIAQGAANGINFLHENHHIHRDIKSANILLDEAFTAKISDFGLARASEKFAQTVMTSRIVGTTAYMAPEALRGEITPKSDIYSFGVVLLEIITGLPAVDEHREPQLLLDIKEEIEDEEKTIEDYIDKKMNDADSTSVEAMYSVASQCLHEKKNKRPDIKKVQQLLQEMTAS

| Structure (SMILES) | EC50 [1] | DNA and ATP content and islet equivalent units (IEQ) compared with vehicle (human islets) | insulin secretory capacity (GSIS) (human islets) | induction of Wnt-driven luciferase reporter gene [2] | NFATc1-GFP nuclear localization [3] | inhibition at 1 µM (EphA3) | inhibition at 1 µM (IGF1R) | inhibition at 1 µM (IKKb) | inhibition at 1 µM (IRAK4) | inhibition at 1 µM (PDGFRb) | inhibition at 1 µM (PI3Ka) | inhibition at 1 µM (SGK1) | inhibition at 1 µM (SRC) | inhibition at 1 µM (SYK) | inhibition at 1 µM (TYRO3) | inhibition at 1 µM (ZAP70) | Percent inhibition, FAK2 (PTK2) (FAK2 (PTK2); Conc 1000 nM) | other results |
| --- | --- | --- | --- | --- | --- | --- | --- | --- | --- | --- | --- | --- | --- | --- | --- | --- | --- | --- |
| CC(C)Oc1ccc(F)c(-c2cnc(N)c(C(=O)Nc3cnccc3N3CCC[C@@H](C(=O)O)C3)n2)c1 [GNF4877] | 660 nM | increases in DNA and ATP content and an increase in islet equivalent units | maintained insulin secretory capacity | induce a Wnt-driven luciferase reporter gene | caused marked nuclear localization of NFATc1-GFP | 63% | 49% | -1% | 52% | 94% | 31% | 67% | 64% | 95% | 46% | 94% | 70% | inhibition at 0.2 µM (PDGFRb; Conc 200 nM): 0%; inhibition at 0.2 µM (SYK; Conc 200 nM): 89%; inhibition at 0.2 µM (ZAP70; Conc 200 nM): 0%; Percent inhibition, FAK2 (PTK2) (FAK2 (PTK2); Conc 200 nM): 9% |
| Nc1ncc(-c2ccccc2)nc1C(=O)Nc1cnccc1N1CCC(C(=O)O)CC1 [GNF7156] | 2200 nM | increases in DNA and ATP content and an increase in islet equivalent units | maintained insulin secretory capacity | induce a Wnt-driven luciferase reporter gene | caused marked nuclear localization of NFATc1-GFP | 82% | 19% | 8% | 25% | 94% | 2% | 39% | 61% | 93% | 52% | 70% | 92% | insulin content of treated human islets (human islets; 6.7 μM GNF7156): slightly reduced insulin content |
